# Laboratory results: a compilation of properties of binary mixtures (doi:10.1021/acs.jpcb.8b06939)
# Assay: xn = mol fraction of the nth substance listed
# Conditions: 100 kPa
smiles,measurement,setting,value
O=C[C@H](O)[C@@H](O)[C@H](O)[C@H](O)CO + CC(=O)[O-].CC[n+]1ccn(C)c1,viscosity,"282.5 K, x1 = 0.0474",756 mPa·s
same,viscosity,"282.5 K, x1 = 0.095",2299 mPa·s
same,viscosity,"283.3 K, x1 = 0.1429",7397 mPa·s
same,viscosity,"292.4 K, x1 = 0.0095",185 mPa·s
same,viscosity,"292.4 K, x1 = 0.0284",245 mPa·s
same,viscosity,"292.4 K, x1 = 0.0474",339 mPa·s
same,viscosity,"292.4 K, x1 = 0.095",870 mPa·s
same,viscosity,"293.3 K, x1 = 0.1429",2397 mPa·s
same,viscosity,"302.1 K, x1 = 0.1429",921 mPa·s
same,viscosity,"303 K, x1 = 0.0095",100 mPa·s
same,viscosity,"303 K, x1 = 0.0284",123 mPa·s
same,viscosity,"303 K, x1 = 0.0474",165 mPa·s
same,viscosity,"303 K, x1 = 0.095",380 mPa·s
same,viscosity,"312.5 K, x1 = 0.0095",61 mPa·s
same,viscosity,"312.5 K, x1 = 0.0284",73 mPa·s
same,viscosity,"312.5 K, x1 = 0.0474",97 mPa·s
same,viscosity,"312.5 K, x1 = 0.095",193 mPa·s
same,viscosity,"322.6 K, x1 = 0.0095",38 mPa·s
same,viscosity,"322.6 K, x1 = 0.0284",45 mPa·s
same,viscosity,"322.6 K, x1 = 0.0474",58 mPa·s
same,viscosity,"322.6 K, x1 = 0.095",111 mPa·s
same,viscosity,"322.6 K, x1 = 0.1429",207 mPa·s
same,viscosity,"332.2 K, x1 = 0.0095",28 mPa·s
same,viscosity,"332.2 K, x1 = 0.0284",32 mPa·s
same,viscosity,"332.2 K, x1 = 0.0474",39 mPa·s
same,viscosity,"332.2 K, x1 = 0.095",68 mPa·s
same,viscosity,"341.3 K, x1 = 0.0284",23 mPa·s
same,viscosity,"341.3 K, x1 = 0.095",47 mPa·s
same,viscosity,"342.5 K, x1 = 0.0095",20 mPa·s
same,viscosity,"342.5 K, x1 = 0.0474",29 mPa·s
same,viscosity,"342.5 K, x1 = 0.1429",77 mPa·s
same,viscosity,"352.1 K, x1 = 0.0095",15 mPa·s
same,viscosity,"352.1 K, x1 = 0.0284",18 mPa·s
same,viscosity,"352.1 K, x1 = 0.0474",21 mPa·s
same,viscosity,"352.1 K, x1 = 0.095",34 mPa·s
same,viscosity,"352.1 K, x1 = 0.1429",53 mPa·s
same,viscosity,"362.3 K, x1 = 0.0095",13 mPa·s
same,viscosity,"362.3 K, x1 = 0.0284",14 mPa·s
same,viscosity,"362.3 K, x1 = 0.0474",16 mPa·s
same,viscosity,"362.3 K, x1 = 0.095",24 mPa·s
same,viscosity,"362.3 K, x1 = 0.1429",38 mPa·s
same,viscosity,"371.7 K, x1 = 0.0095",11 mPa·s
same,viscosity,"371.7 K, x1 = 0.0284",12 mPa·s
same,viscosity,"371.7 K, x1 = 0.0474",13 mPa·s
same,viscosity,"371.7 K, x1 = 0.1429",28 mPa·s
OC[C@H]1O[C@@H](O[C@H]2[C@H](O)[C@@H](O)C(O)O[C@@H]2CO)[C@H](O)[C@@H](O)[C@@H]1O (stereo partly specified) + CC(=O)[O-].CC[n+]1ccn(C)c1,viscosity,"282.5 K, x1 = 0.005",407 mPa·s
same,viscosity,"282.5 K, x1 = 0.0151",517 mPa·s
same,viscosity,"282.5 K, x1 = 0.0255",756 mPa·s
same,viscosity,"282.5 K, x1 = 0.0524",2299 mPa·s
same,viscosity,"283.3 K, x1 = 0.0807",7397 mPa·s
same,viscosity,"292.4 K, x1 = 0.005",185 mPa·s
same,viscosity,"292.4 K, x1 = 0.0151",245 mPa·s
same,viscosity,"292.4 K, x1 = 0.0524",870 mPa·s
same,viscosity,"293.3 K, x1 = 0.0807",2397 mPa·s
same,viscosity,"303 K, x1 = 0.005",100 mPa·s
same,viscosity,"303 K, x1 = 0.0151",123 mPa·s
same,viscosity,"303 K, x1 = 0.0255",165 mPa·s
same,viscosity,"303 K, x1 = 0.0524",380 mPa·s
same,viscosity,"312.5 K, x1 = 0.0255",97 mPa·s
same,viscosity,"312.5 K, x1 = 0.0524",193 mPa·s
same,viscosity,"312.5 K, x1 = 0.0807",419 mPa·s
same,viscosity,"322.6 K, x1 = 0.005",38 mPa·s
same,viscosity,"322.6 K, x1 = 0.0255",58 mPa·s
same,viscosity,"322.6 K, x1 = 0.0524",111 mPa·s
same,viscosity,"332.2 K, x1 = 0.005",28 mPa·s
same,viscosity,"332.2 K, x1 = 0.0151",32 mPa·s
same,viscosity,"332.2 K, x1 = 0.0524",68 mPa·s
same,viscosity,"341.3 K, x1 = 0.0151",23 mPa·s
same,viscosity,"341.3 K, x1 = 0.0524",47 mPa·s
same,viscosity,"342.5 K, x1 = 0.0255",29 mPa·s
same,viscosity,"342.5 K, x1 = 0.0807",77 mPa·s
same,viscosity,"352.1 K, x1 = 0.005",15 mPa·s
same,viscosity,"352.1 K, x1 = 0.0151",18 mPa·s
same,viscosity,"352.1 K, x1 = 0.0255",21 mPa·s
same,viscosity,"352.1 K, x1 = 0.0524",34 mPa·s
same,viscosity,"352.1 K, x1 = 0.0807",53 mPa·s
same,viscosity,"362.3 K, x1 = 0.005",13 mPa·s
same,viscosity,"362.3 K, x1 = 0.0151",14 mPa·s
same,viscosity,"362.3 K, x1 = 0.0255",16 mPa·s
same,viscosity,"362.3 K, x1 = 0.0524",24 mPa·s
same,viscosity,"362.3 K, x1 = 0.0807",38 mPa·s
same,viscosity,"371.7 K, x1 = 0.005",11 mPa·s
same,viscosity,"371.7 K, x1 = 0.0151",12 mPa·s
same,viscosity,"371.7 K, x1 = 0.0255",13 mPa·s
same,viscosity,"371.7 K, x1 = 0.0807",28 mPa·s
same,viscosity,"373.1 K, x1 = 0.0524",19 mPa·s
